Measurements reported in publication PMC10261046, “Mechanism of small molecule inhibition of Plasmodium falciparum myosin A informs antimalarial drug design” (Nature Communications, 2023).

Experiments:
[1] = biological target: T1, PfMyoA triple mutant (Plasmodium falciparum, UniProt Q8IDR3, F270Y/F471A/F645H); assay: basal ATPase assay (NADH-linked); assay type: biochemical
T1 construct: gene MyoA; full length PfMyoA heavy chain triple mutant, co-expressed with light chains PfELC and PfMTIP; with PfELC and PfMTIP light chains
T1 sequence (Q8I4W8 whole entry, stated change not applied): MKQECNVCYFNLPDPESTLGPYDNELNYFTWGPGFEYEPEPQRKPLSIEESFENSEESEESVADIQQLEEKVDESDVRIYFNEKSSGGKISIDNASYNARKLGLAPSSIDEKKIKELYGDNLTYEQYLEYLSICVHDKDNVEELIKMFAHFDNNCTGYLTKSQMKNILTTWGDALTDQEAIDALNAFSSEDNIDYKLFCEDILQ
T1 sequence (Q8IDR3 whole entry, stated change not applied): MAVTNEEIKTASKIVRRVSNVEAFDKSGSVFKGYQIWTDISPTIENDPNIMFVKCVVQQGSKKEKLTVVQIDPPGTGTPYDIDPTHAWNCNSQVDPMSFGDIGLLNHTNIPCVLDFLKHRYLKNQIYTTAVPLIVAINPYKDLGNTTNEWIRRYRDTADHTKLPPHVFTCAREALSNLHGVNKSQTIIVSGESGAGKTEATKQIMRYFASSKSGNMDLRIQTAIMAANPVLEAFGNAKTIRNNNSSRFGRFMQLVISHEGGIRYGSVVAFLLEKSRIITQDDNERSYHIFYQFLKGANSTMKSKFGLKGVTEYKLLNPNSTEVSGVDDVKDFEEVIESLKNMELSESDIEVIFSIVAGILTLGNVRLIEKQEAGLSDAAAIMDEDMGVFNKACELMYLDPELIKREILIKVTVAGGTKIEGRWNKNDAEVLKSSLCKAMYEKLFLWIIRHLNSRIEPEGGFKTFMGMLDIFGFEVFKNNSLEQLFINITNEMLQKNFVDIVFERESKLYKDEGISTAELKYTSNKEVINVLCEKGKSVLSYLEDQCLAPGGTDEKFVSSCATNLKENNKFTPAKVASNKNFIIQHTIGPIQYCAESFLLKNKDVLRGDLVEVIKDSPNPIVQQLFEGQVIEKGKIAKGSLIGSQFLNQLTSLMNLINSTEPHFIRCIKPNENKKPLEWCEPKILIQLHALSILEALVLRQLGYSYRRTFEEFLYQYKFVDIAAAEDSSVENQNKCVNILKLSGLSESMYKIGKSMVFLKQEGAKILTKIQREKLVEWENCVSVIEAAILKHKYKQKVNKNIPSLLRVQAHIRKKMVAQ
T1 sequence (Q8IJM4 whole entry, stated change not applied, further chain): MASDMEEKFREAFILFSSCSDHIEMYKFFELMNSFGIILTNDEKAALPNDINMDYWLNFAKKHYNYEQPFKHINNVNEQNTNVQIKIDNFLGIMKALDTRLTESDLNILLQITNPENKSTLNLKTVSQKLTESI

[2] = biological target: T2, PfMyoA (Plasmodium falciparum myosin A) (Plasmodium falciparum, UniProt Q8IDR3); assay: X-ray crystal structure ([…] Å) and affinity measurement for nucleotide-free PfMyoA; also basal and actin-activated ATPase inhibition (IC50 […]); assay type: binding; set-up: gene MyoA; with PfELC and PfMTIP light chains
Target sequence in this assay (Q8IDR3 whole entry): as the sequence (Q8IDR3 whole entry, stated change not applied) above
Target sequence in this assay (Q8IJM4 entry or part of it, further chain): as the sequence (Q8IJM4 whole entry, stated change not applied, further chain) above
Target sequence in this assay (Q8I4W8 entry or part of it, further chain): as the sequence (Q8I4W8 whole entry, stated change not applied) above

[3] = biological target: T2, PfMyoA (Plasmodium falciparum myosin A); assay: X-ray crystal structure, […] Å; assay type: binding; set-up: gene MyoA; with PfELC and PfMTIP light chains
Target sequence in this assay (Q8IDR3 whole entry): as the sequence (Q8IDR3 whole entry, stated change not applied) above
Target sequence in this assay (Q8I4W8 entry or part of it, further chain): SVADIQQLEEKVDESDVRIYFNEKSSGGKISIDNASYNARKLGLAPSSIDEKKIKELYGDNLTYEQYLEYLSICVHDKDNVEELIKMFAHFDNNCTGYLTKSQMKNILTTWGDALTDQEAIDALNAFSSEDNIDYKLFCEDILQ
Target sequence in this assay (Q8IJM4 entry or part of it, further chain): as the sequence (Q8IJM4 whole entry, stated change not applied, further chain) above

[4] = biological target: T2, PfMyoA (Plasmodium falciparum myosin A); assay: stopped-flow fluorescence transient kinetics; Kd printed in text is in the presence of […] KNX-002; assay type: binding; set-up: gene MyoA; full length PfMyoA heavy chain with light chains; with PfELC and PfMTIP light chains
Target sequence in this assay (Q8IDR3 whole entry): as the sequence (Q8IDR3 whole entry, stated change not applied) above
Target sequence in this assay (Q8IJM4 entry or part of it, further chain): as the sequence (Q8IJM4 whole entry, stated change not applied, further chain) above
Target sequence in this assay (Q8I4W8 entry or part of it, further chain): as the sequence (Q8I4W8 whole entry, stated change not applied) above

[5] = biological target: T2, PfMyoA (Plasmodium falciparum myosin A); assay: X-ray crystal structure, […] Å; assay type: binding; set-up: gene MyoA; with PfELC and PfMTIP light chains; remark: listed apart in the source
Target sequence in this assay (Q8IDR3 whole entry): as the sequence (Q8IDR3 whole entry, stated change not applied) above
Target sequence in this assay (Q8IJM4 entry or part of it, further chain): as the sequence (Q8IJM4 whole entry, stated change not applied, further chain) above

`COc1ccc(C2(NCc3c[nH]nc3-c3cccs3)CC2)cc1` [KNX-002] showed an IC50 [1] of 52 µM and a Kd [2] of 8.6 µM.
In the case of `Nc1ncnc2c1ncn2[C@@H]1O[C@H](COP(=O)(O)OP(=O)(O)O)[C@@H](O)[C@H]1O` [ADP], the “X-ray crystal structure, 2.03 Å” value [3] is reported as “the substrate was hydrolyzed in PfMyoA/ATPγS/Apo leaving only Mg.ADP in the active site”.
mant-ADP gave a Kd [4] of 3.5 µM.
With `Nc1ncnc2c1ncn2[C@@H]1O[C@H](CO[P@](=O)(O)O[P@](=O)(O)O[P@@](=O)(O)S)[C@@H](O)[C@H]1O` [ATPγS] the “X-ray crystal structure, 2.2 Å” value [5] was “unhydrolyzed Mg.ATPyS occupies the active site of PfMyoA/ATPγS/KNX-002”.
